Assay results as given in patent US20220169629A1, “PESTICIDALLY ACTIVE DIAZINE-AMIDE COMPOUNDS” (SYNGENTA CROP PROTECTION AG, priority 2019, published 2022).

What was measured:
Type in all cases: in vivo
[1] = test system: Chilo suppressalis (striped rice stemborer); assay: Example B4: Chilo suppressalis (striped rice stemborer), artificial diet, L2 larvae; settings: 144 h, application rate of 200 ppm, 6 days after infestation, L2 larvae on artificial diet, read-out: control in at least one of the three categories (mortality, anti-feeding or growth inhibition)
Description: Example B4: Chilo suppressalis (Striped rice stemborer)
24-well microtiter plates with artificial diet were treated with aqueous test solutions prepared from 10′000 ppm DMSO stock solutions by pipetting. After drying, the plates were infested with L2 larvae (6-8 per well). The samples were assessed for mortality, anti-feeding effect, and growth inhibition in comparison to untreated samples 6 days after infestation. Control of Chilo suppressalis by a test sample is given when at least one of the categories mortality, anti-feedant effect, and growth inhibition is higher than the untreated sample.

[2] = test system: Euschistus heros (neotropical brown stink bug); assay: Example B2: Euschistus heros (neotropical brown stink bug), sprayed soybean leaves, N2 nymphs; settings: 120 h, application rate of 200 ppm, 5 days after infestation, N2 nymphs on soybean leaves, read-out: control in at least one of the two categories (mortality or growth inhibition)
Description: Example B2: Euschistus heros (Neotropical Brown Stink Bug)
Soybean leaves on agar in 24-well microtiter plates were sprayed with aqueous test solutions prepared from 10′000 ppm DMSO stock solutions. After drying the leaves were infested with N2 nymphs. The samples were assessed for mortality and growth inhibition in comparison to untreated samples 5 days after infestation.

[3] = test system: Plutella xylostella (diamond back moth); assay: Example B5: Plutella xylostella (diamond back moth), artificial diet, 24-well, eggs; settings: 192 h, application rate of 200 ppm, 8 days after infestation, read-out: control in at least one of the two categories (mortality or growth inhibition)
Description: Example B5: Plutella xylostella (Diamond Back Moth)
24-well microtiter plates with artificial diet were treated with aqueous test solutions prepared from 10′000 ppm DMSO stock solutions by pipetting. After drying, Plutella eggs were pipetted through a plastic stencil onto a gel blotting paper and the plate was closed with it. The samples were assessed for mortality and growth inhibition in comparison to untreated samples 8 days after infestation.

[4] = test system: Spodoptera littoralis (Egyptian cotton leaf worm); assay: Example B7: Spodoptera littoralis (Egyptian cotton leaf worm), sprayed cotton leaf discs, L1 larvae; settings: foliar, 72 h, application rate of 200 ppm, 3 days after infestation, L1 larvae on cotton leaf discs, read-out: control in at least one of the three categories (mortality, anti-feeding or growth inhibition)
Description: Example B7: Spodoptera littoralis (Egyptian Cotton Leaf Worm)
Cotton leaf discs were placed onto agar in 24-well microtiter plates and sprayed with aqueous test solutions prepared from 10′000 ppm DMSO stock solutions. After drying the leaf discs were infested with five L1 larvae. The samples were assessed for mortality, anti-feeding effect, and growth inhibition in comparison to untreated samples 3 days after infestation. Control of Spodoptera littoralis by a test sample is given when at least one of the categories mortality, anti-feedant effect, and growth inhibition is higher than the untreated sample.

[5] = test system: Diabrotica balteata (corn root worm); assay: Example B1: Diabrotica balteata (corn root worm), sprayed maize sprouts, L2 larvae; settings: 96 h, application rate of 200 ppm, 4 days after infestation, L2 larvae on maize sprouts, read-out: control in at least one of the two categories (mortality or growth inhibition)
Description: Example B1: Diabrotica Balteata (Corn Root Worm)
Maize sprouts placed onto an agar layer in 24-well microtiter plates were treated with aqueous test solutions prepared from 10′000 ppm DMSO stock solutions by spraying. After drying, the plates were infested with L2 larvae (6 to 10 per well). The samples were assessed for mortality and growth inhibition in comparison to untreated samples 4 days after infestation.

[6] = test system: Myzus persicae (green peach aphid); assay: Example B6: Myzus persicae (green peach aphid), intrinsic activity; settings: 120 h, test rate of 12 ppm, 5 days after infestation, sucrose solution, infested pea seedlings
Source text: Example B6: Myzus persicae (Green Peach Aphid): Intrinsic Activity
Test compounds prepared from 10′000 ppm DMSO stock solutions were applied by pipette into 24-well microtiter plates and mixed with sucrose solution. The plates were closed with a stretched Parafilm. A plastic stencil with 24 holes was placed onto the plate and infested pea seedlings were placed directly on the Parafilm. The infested plate was closed with a gel blotting paper and another plastic stencil and then turned upside down. The samples were assessed for mortality 5 days after infestation.

[7] = test system: Plutella xylostella (diamondback moth); assay: Example B10: Plutella xylostella (diamondback moth), 96-well artificial diet; settings: 216 h, application rate of 500 ppm, 9 days after infestation, eggs/L1 larvae
Description: Example B10: Plutella xylostella (Diamondback Moth)
96-well microtiter plates containing artificial diet were treated with aqueous test solutions, prepared from 10′000 ppm DMSO stock solutions, by a liquid handling robot. After drying, eggs (˜30 per well) were infested onto a netted lid which was suspended above the diet. The eggs hatch and L1 larvae move down to the diet. The samples were assessed for mortality 9 days after infestation.

[8] = test system: Spodoptera littoralis (Egyptian cotton leaf worm); assay: Example B8: Spodoptera littoralis (Egyptian cotton leaf worm), uptake by lettuce roots from agar; settings: 144 h, test rate of 12.5 ppm, 6 days after infestation, compound absorbed by lettuce roots, read-out: control in at least one of the three categories (mortality, anti-feeding, or growth inhibition)
Source text: Example B8: Spodoptera littoralis (Egyptian Cotton Leaf Worm)
Test compounds were applied by pipette from 10′000 ppm DMSO stock solutions into 24-well plates and mixed with agar. Lettuce seeds were placed onto the agar and the multi well plate was closed by another plate which contained also agar. After 7 days the compound was absorbed by the roots and the lettuce grew into the lid plate. The lettuce leaves were then cut off into the lid plate. Spodoptera eggs were pipetted through a plastic stencil onto a humid gel blotting paper and the lid plate was closed with it. The samples were assessed for mortality, anti-feedant effect and growth inhibition in comparison to untreated samples 6 days after infestation.

CC(NC(=O)c1cc(OCC(F)F)cc(C(F)(F)F)c1)c1nccnc1-c1ncc(OCC(F)(F)F)cn1 (centres unmarked) [Compound P1, 3-(2,2-difluoroethoxy)-N-[1-[3-[5-(2,2,2-trifluoroethoxy)pyrimidin-2-yl]pyrazin-2-yl]ethyl]-5-(trifluoromethyl)benzamide]
≥ 80%: control at 200 ppm [1] | percent control (mortality or growth inhibition) at 200 ppm [2] | percent control (mortality or growth inhibition) at 200 ppm [3] | percent control (mortality, anti-feeding or growth inhibition) at 200 ppm [4]

CC(NC(=O)c1cc(OC(F)F)cc(C(F)(F)F)c1)c1nccnc1-c1ncc(OCC(F)(F)F)cn1 (centres unmarked) [Compound P3, 3-(difluoromethoxy)-N-[1-[3-[5-(2,2,2-trifluoroethoxy)pyrimidin-2-yl]pyrazin-2-yl]ethyl]-5-(trifluoromethyl)benzamide]
≥ 80%: control at 200 ppm [1] | percent control (mortality or growth inhibition) at 200 ppm [2] | percent control (mortality or growth inhibition) at 200 ppm [5] | percent control (mortality or growth inhibition) at 200 ppm [3] | mortality at 12 ppm [6] | percent control (mortality, anti-feeding or growth inhibition) at 200 ppm [4]

CC(NC(=O)c1cc(OCC(F)(F)F)cc(C(F)(F)F)c1)c1nccnc1-c1ncc(OCC(F)(F)F)cn1 (centres unmarked) [Compound P5, 3-(2,2,2-trifluoroethoxy)-N-[1-[3-[5-(2,2,2-trifluoroethoxy)pyrimidin-2-yl]pyrazin-2-yl]ethyl]-5-(trifluoromethyl)benzamide]
≥ 80%: control at 200 ppm [1] | percent control (mortality or growth inhibition) at 200 ppm [2] | percent control (mortality or growth inhibition) at 200 ppm [3] | percent control (mortality, anti-feeding or growth inhibition) at 200 ppm [4]

CC(NC(=O)c1cc(OC(F)F)cc(C(F)(F)F)c1)c1nccnc1-c1ccc(OCC(F)F)cn1 (centres unmarked) [Compound P13, N-[1-[3-[5-(2,2-difluoroethoxy)-2-pyridyl]pyrazin-2-yl]ethyl]-3-(difluoromethoxy)-5-(trifluoromethyl)benzamide]
≥ 80%: control at 200 ppm [1] | mortality at 500 ppm [7] | percent control (mortality or growth inhibition) at 200 ppm [5] | percent control (mortality or growth inhibition) at 200 ppm [3] | percent control (mortality, anti-feeding or growth inhibition) at 200 ppm [4]

CC(NC(=O)c1cc(OCC(F)(F)F)cc(C(F)(F)F)c1)c1nccnc1-c1ccc(OCC(F)F)cn1 (centres unmarked) [Compound P15, N-[1-[3-[5-(2,2-difluoroethoxy)-2-pyridyl]pyrazin-2-yl]ethyl]-3-(2,2,2-trifluoroethoxy)-5-(trifluoromethyl)benzamide]
≥ 80%: control at 200 ppm [1] | mortality at 500 ppm [7] | percent control (mortality or growth inhibition) at 200 ppm [5] | percent control (mortality or growth inhibition) at 200 ppm [3] | percent control (mortality, anti-feeding or growth inhibition) at 200 ppm [4]

CC(NC(=O)c1cc(Br)cc(C(F)(F)F)c1)c1nccnc1-c1ccc(OCC(F)F)cn1 (centres unmarked) [Compound P19, 3-bromo-N-[1-[3-[5-(2,2-difluoroethoxy)-2-pyridyl]pyrazin-2-yl]ethyl]-5-(trifluoromethyl)benzamide]
≥ 80%: control at 200 ppm [1] | mortality at 500 ppm [7] | percent control (mortality or growth inhibition) at 200 ppm [5] | percent control (mortality or growth inhibition) at 200 ppm [3] | percent control (mortality, anti-feeding or growth inhibition) at 200 ppm [4]

CC(NC(=O)c1cc(Cl)cc(C(F)(F)F)c1)c1nccnc1-c1ccc(OCC(F)(F)F)cn1 (centres unmarked) [Compound P21, 3-chloro-N-[1-[3-[5-(2,2,2-trifluoroethoxy)-2-pyridyl]pyrazin-2-yl]ethyl]-5-(trifluoromethyl)benzamide]
≥ 80%: control at 200 ppm [1] | mortality at 500 ppm [7] | percent control (mortality or growth inhibition) at 200 ppm [5] | percent control (mortality or growth inhibition) at 200 ppm [3] | percent control (mortality, anti-feeding or growth inhibition) at 200 ppm [4]

CC(NC(=O)c1cc(OCC(F)(F)F)cc(C(F)(F)F)c1)c1nccnc1-c1ccc(C#N)cn1 (centres unmarked) [Compound P25, N-[1-[3-(5-cyano-2-pyridyl)pyrazin-2-yl]ethyl]-3-(2,2,2-trifluoroethoxy)-5-(trifluoromethyl)benzamide]
≥ 80%: control at 200 ppm [1] | mortality at 500 ppm [7] | percent control (mortality or growth inhibition) at 200 ppm [5] | percent control (mortality or growth inhibition) at 200 ppm [3] | percent control (mortality, anti-feeding or growth inhibition) at 200 ppm [4]

CC(NC(=O)c1cc(OCC(F)F)cc(C(F)(F)F)c1)c1nccnc1-c1ncc(OC(F)F)cn1 (centres unmarked) [Compound P27, 3-(2,2-difluoroethoxy)-N-[1-[3-[5-(difluoromethoxy)pyrimidin-2-yl]pyrazin-2-yl]ethyl]-5-(trifluoromethyl)benzamide]
≥ 80%: control at 200 ppm [1] | mortality at 500 ppm [7] | percent control (mortality or growth inhibition) at 200 ppm [3] | mortality at 12 ppm [6] | percent control (mortality, anti-feeding or growth inhibition) at 200 ppm [4]

CC(NC(=O)c1cc(SC(F)(F)F)cc(C(F)(F)F)c1)c1nccnc1-c1ncc(OCC(F)F)cn1 (centres unmarked) [Compound P29, N-[1-[3-[5-(2,2-difluoroethoxy)pyrimidin-2-yl]pyrazin-2-yl]ethyl]-3-(trifluoromethyl)-5-(trifluoromethylsulfanyl)benzamide]
≥ 80%: control at 200 ppm [1] | mortality at 500 ppm [7] | percent control (mortality or growth inhibition) at 200 ppm [5] | percent control (mortality or growth inhibition) at 200 ppm [3] | percent control (mortality, anti-feeding or growth inhibition) at 200 ppm [4]

CC(NC(=O)c1cc(OCC(F)(F)F)cc(C(F)(F)F)c1)c1nccnc1-c1ncc(OC(F)F)cn1 (centres unmarked) [Compound P30, N-[1-[3-[5-(difluoromethoxy)pyrimidin-2-yl]pyrazin-2-yl]ethyl]-3-(2,2,2-trifluoroethoxy)-5-(trifluoromethyl)benzamide]
≥ 80%: control at 200 ppm [1] | mortality at 500 ppm [7] | percent control (mortality or growth inhibition) at 200 ppm [5] | percent control (mortality or growth inhibition) at 200 ppm [3] | percent control (mortality, anti-feeding or growth inhibition) at 200 ppm [4]

CC(NC(=O)c1cc(C(F)(F)F)cc(C(F)(F)F)c1)c1nccnc1-c1ncc(OCC(F)F)cn1 (centres unmarked) [Compound P33, N-[1-[3-[5-(2,2-difluoroethoxy)pyrimidin-2-yl]pyrazin-2-yl]ethyl]-3,5-bis(trifluoromethyl)benzamide]
≥ 80%: control at 200 ppm [1] | percent control (mortality or growth inhibition) at 200 ppm [2] | percent control (mortality or growth inhibition) at 200 ppm [5] | percent control (mortality or growth inhibition) at 200 ppm [3] | percent control (mortality, anti-feeding or growth inhibition) at 200 ppm [4]

C[C@H](NC(=O)c1cc(C(F)(F)F)cc(C(F)(F)F)c1)c1nccnc1-c1ccc(C#N)cn1 [Compound P34, N-[(1S)-1-[3-(5-cyano-2-pyridyl)pyrazin-2-yl]ethyl]-3,5-bis(trifluoromethyl)benzamide]
≥ 80%: control at 200 ppm [1] | percent control (mortality, anti-feeding or growth inhibition) at 12.5 ppm [8] | mortality at 500 ppm [7] | percent control (mortality or growth inhibition) at 200 ppm [5] | percent control (mortality or growth inhibition) at 200 ppm [3] | percent control (mortality, anti-feeding or growth inhibition) at 200 ppm [4]
